The test system of data set [1] is colon cancer cell lines RKO and HCT116. Briefly: FMCA primary screening at 10 μM. To be noted: 10 μM drug concentration; both cell lines; hit criterion SI <40 %. The data set is classed as cell-based, human. The method, then: For primary screening, the colon cancer cell lines HCT 116 and RKO, obtained from American Type Culture Collection (ATCC; Rockville, MD, USA), were cultured in McCoy’s 5a medium supplemented with 10 % heat-inactivated fetal bovine serum, 2 mM L-glutamine, 100 μg/ml streptomycin and 100 U/ml penicillin (all from Sigma-Aldrich St. Louis, MO, USA).
The Pharmakon 1600 library (Microsource Inc, MO, USA) consists of 1,600 annotated compounds previously used in the clinical setting. The library was delivered in […] each containing 80 compounds at a concentration of 10 mM dissolved in DMSO. For the primary screening, aliquots of the DMSO solutions were transferred to 384-well Labcyte source plates (Labcyte Inc, CA, USA) using a Biomek 2000 and stored at room temperature in containers under nitrogen atmosphere. These source plates were subsequently used to deliver 10 μM (final concentration) of each drug to 384-well screening plates using a acoustic dispensing Echo 550 instrument equipped with Labcytes Access robotics (Labcyte).
The fluorometric microculture cytotoxicity assay (FMCA), described in detail previously (Lindhagen et al. [2008]), was used for measurement of the cytotoxic effect of library compounds and the established standard drugs. The FMCA is based on measurement of fluorescence generated from hydrolysis of fluorescein diacetate (FDA) to fluorescein by cells with intact plasma membranes. Cells were seeded in 384-well plates using the pipetting robot Precision 2000 (Bio-Tek Instruments Inc, Winooski, VT) and cultured over night before drugs were added by the Echo 550 system. […] Results are expressed as survival index (SI), defined as fluorescence of experimental wells in per cent of unexposed control wells with blank values subtracted.
Screening data were exported to Vortex (Dotmatics Inc, UK) software for analysis. […] Structural similarity to other compounds in the library was calculated based on a structural fingerprint consisting of chemical fragments located within the compound as computed by Vortex. […]

The next data set has as its target panel of 97 kinases. Briefly: KINOMEscan binding assay, whole panel. The note with it: for kinase binding: 10 µM, panel of 97 kinases; for Interactions Mapped / S-Score(35): 10 μM; for Interactions Mapped: 97 Assays Tested; for S-Score(35): number of non-mutant kinases with POC <35/number of non-mutant kinases tested. The method, then:
(§1) The binding affinities of ABZ and MBZ were tested at 10 μM in a high-throughput binding assay (KINOMEscan, Discoverx, CA, USA) against a panel of 97 kinases tagged with DNA (Davis et al. [2011]). Compounds that bind the kinase active site and directly or indirectly prevent kinase binding to an immobilized ligand will reduce the amount of kinase captured on solid support. […] Hits are identified by measuring the amount of kinase captured in test versus control samples by using a quantitative PCR method that detects the associated DNA label (http://www.discoverx.com/tools-resources/publications-references). Results are presented as percent of control (POC). Selectivity score (S-score) is a quantitative measure of compound selectivity. S(35) is calculated as number of non-mutant kinases with POC <35/number of non-mutant kinases tested. Binding constants were determined with the same method using 11-point threefold serial dilutions of the compound. Curves were fitted using a nonlinear least square fit with the Levenberg–Marquardt algorithm (Davis et al. [2011]).

For data set [2], the system named is reactive oxygen species (ROS) generation. More on the design: method as in Locatelli et al. [2004]. The note with it: ref Locatelli et al. [2004]; cited from earlier work.
The conditions of data set [3]: cited from earlier work.
Another data set deals with T1, ABL1 nonphosphorylated (Homo sapiens, UniProt P00519).
T1 construct: purchased Discoverx (KINOMEscan service)
Kind of data set: KINOMEscan binding assay. As for the experimental part: as §1

Another data set addresses T2, ABL1 phosphorylated (Homo sapiens, UniProt P00519).
T2 construct: purchased Discoverx (KINOMEscan service)
Kind of data set: KINOMEscan binding assay. As for the experimental part:
as §1

The target of data set [4] is T3, ABL1(E255K) phosphorylated (Homo sapiens, UniProt P00519, E255K).
T3 construct: purchased Discoverx (KINOMEscan service)
Kind of data set: KINOMEscan binding assay. As for the experimental part: as §1

In data set [5] the target is T4, ABL1(T315I) phosphorylated (Homo sapiens, UniProt P00519, T315I).
T4 construct: purchased Discoverx (KINOMEscan service)
Briefly: KINOMEscan binding assay. The method, then: as §1

For the next data set, the target named is T5, BRAF (Homo sapiens, UniProt P15056).
T5 construct: purchased Discoverx (KINOMEscan service)
T5 sequence (P15056 whole entry): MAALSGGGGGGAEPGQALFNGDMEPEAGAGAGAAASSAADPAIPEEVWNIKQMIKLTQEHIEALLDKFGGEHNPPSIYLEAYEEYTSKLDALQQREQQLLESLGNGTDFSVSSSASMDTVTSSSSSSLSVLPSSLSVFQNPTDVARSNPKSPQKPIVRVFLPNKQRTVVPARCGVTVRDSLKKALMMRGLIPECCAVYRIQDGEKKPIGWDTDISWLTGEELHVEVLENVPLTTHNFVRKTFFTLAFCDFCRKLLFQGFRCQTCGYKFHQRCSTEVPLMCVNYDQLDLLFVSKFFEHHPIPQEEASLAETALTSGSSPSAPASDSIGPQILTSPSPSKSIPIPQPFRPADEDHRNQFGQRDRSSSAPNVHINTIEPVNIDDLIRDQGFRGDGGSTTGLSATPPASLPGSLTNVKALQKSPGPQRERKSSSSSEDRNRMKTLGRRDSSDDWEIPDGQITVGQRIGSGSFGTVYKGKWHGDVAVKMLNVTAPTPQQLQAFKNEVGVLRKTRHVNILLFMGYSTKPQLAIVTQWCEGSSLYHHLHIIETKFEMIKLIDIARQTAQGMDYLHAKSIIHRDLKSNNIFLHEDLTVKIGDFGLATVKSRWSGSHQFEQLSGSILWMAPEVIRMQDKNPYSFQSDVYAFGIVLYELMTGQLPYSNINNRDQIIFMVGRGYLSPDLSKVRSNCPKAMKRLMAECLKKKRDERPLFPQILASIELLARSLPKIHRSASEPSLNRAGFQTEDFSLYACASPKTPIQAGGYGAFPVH
Briefly: KINOMEscan binding assay. As for the experimental part:
as §1

The next data set has as its target T6, BRAF(V600E) (Homo sapiens, UniProt P15056, V600E).
T6 construct: purchased Discoverx (KINOMEscan service)
Briefly: KINOMEscan binding assay. As for the experimental part:
as §1

Another data set deals with T7, JNK3 (Homo sapiens, UniProt P53779).
T7 construct: purchased Discoverx (KINOMEscan service)
T7 sequence (P53779 whole entry): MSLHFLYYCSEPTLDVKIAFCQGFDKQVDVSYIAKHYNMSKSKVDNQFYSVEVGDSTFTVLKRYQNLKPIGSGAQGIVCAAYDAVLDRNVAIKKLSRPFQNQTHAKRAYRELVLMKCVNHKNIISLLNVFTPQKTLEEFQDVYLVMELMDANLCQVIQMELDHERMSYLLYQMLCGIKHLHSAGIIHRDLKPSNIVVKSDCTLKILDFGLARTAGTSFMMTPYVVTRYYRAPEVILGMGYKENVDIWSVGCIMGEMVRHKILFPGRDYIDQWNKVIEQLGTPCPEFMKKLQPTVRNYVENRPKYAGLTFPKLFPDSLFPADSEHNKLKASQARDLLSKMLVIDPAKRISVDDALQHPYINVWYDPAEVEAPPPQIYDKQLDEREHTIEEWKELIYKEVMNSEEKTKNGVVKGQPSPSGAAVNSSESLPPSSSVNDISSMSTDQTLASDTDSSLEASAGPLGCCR
Kind of data set: KINOMEscan binding assay. The method, then:
as §1

A further data set addresses T8, KIT (Homo sapiens, UniProt P10721).
T8 construct: purchased Discoverx (KINOMEscan service)
Briefly: KINOMEscan binding assay. The method, then:
as §1

A further data set concerns the target T9, PDGFRA (Homo sapiens, UniProt P16234).
T9 construct: purchased Discoverx (KINOMEscan service)
Briefly: KINOMEscan binding assay. As for the experimental part: as §1

A further data set concerns the target T10, PDGFRB (Homo sapiens, UniProt P09619).
T10 construct: purchased Discoverx (KINOMEscan service)
Briefly: KINOMEscan binding assay. The method, then: as §1

The subject of data set [6] is colon cancer cell lines (HCT 116, RKO, HT29, HT-8 and SW626). Kind of data set: FMCA concentration-response, colon cancer cell lines. In kind it is cell-based. To be noted: Homo sapiens; all 5 colon cancer cell lines; 72 h FMCA. The method, then: The colon cancer cell lines HT29, HT-8 and SW626 and the normal phenotype non-malignant epithelial MCF 10A, renal RPTEC/TERT1 and hepatocyte NeHepLxHT cell lines were used for validation experiments. These cell lines were all obtained from ATCC and cultured according to the protocols provided by the supplier. All the cell lines were cultured at 37 °C in a humidified atmosphere containing 5 % CO2.
For dose–response studies, Labcyte source plates and the Echo dispenser were used in a similar manner to deliver different concentrations of each drug to destination plates using on board software protocols (Labcyte).
The fluorometric microculture cytotoxicity assay (FMCA), described in detail previously (Lindhagen et al. [2008]), was used for measurement of the cytotoxic effect of library compounds and the established standard drugs. The FMCA is based on measurement of fluorescence generated from hydrolysis of fluorescein diacetate (FDA) to fluorescein by cells with intact plasma membranes. […] Results are expressed as survival index (SI), defined as fluorescence of experimental wells in per cent of unexposed control wells with blank values subtracted.
Concentration–response data of screening hits and standard agents were analyzed using the software GraphPad Prism4 (GraphPad Software Inc., San Diego, CA, USA). […]

For data set [7], the system named is NCI 60 cell line panel. Briefly: NCI 60 growth inhibitory screen data mining (Cellminer). The data set is classed as cell-based. The method, then:
Analysis of data from the National Cancer Institute growth inhibitory screen in 60 cell lines (NCI 60 GI 50 data) was performed with the help by the NCI Cellminer database (http://discover.nci.nih.gov/cellminer/). Z scores are determined for each experiment/cell line pair by the subtraction from its intensity by the experiment mean (across the 60 cell lines) and division by the standard deviation of the experiment (across the 60 cell lines). The z score average was then calculated as the mean across all experiments that passed quality control criteria. The z score will have a mean of zero and a standard deviation of one.

In data set [8] the test system is NCI 60 cell line panel. Also on record: method as in NCI Cellminer database. To be noted: NCI 60 panel; ref NCI Cellminer database; read-out: average GI 50 over the panel; cited from earlier work.
Data set [9] deals with refractory metastatic colon cancer. More on the design: method as in case report accepted for publication in Acta Oncologica. The note with it: 100 mg twice daily, ref case report accepted for publication in Acta Oncologica, cited from earlier work.
In another data set the test system is glioma. More on the design: method as in Bai et al. [2011]. The note with it: two orthotopic mouse models of glioma; ref Bai et al. [2011]; cited from earlier work.
Data set [10] relates to protein kinases including Bcr–Abl. Also on record: method as in Park et al. [2012]. The note with it: ref Park et al. [2012]; cited from earlier work.
The mark [11] stands for this setting: percent of control at 10 μM, read-out: POC (10 μM).

The structures appear in SMILES notation.

T8 sequence (P10721 26-976): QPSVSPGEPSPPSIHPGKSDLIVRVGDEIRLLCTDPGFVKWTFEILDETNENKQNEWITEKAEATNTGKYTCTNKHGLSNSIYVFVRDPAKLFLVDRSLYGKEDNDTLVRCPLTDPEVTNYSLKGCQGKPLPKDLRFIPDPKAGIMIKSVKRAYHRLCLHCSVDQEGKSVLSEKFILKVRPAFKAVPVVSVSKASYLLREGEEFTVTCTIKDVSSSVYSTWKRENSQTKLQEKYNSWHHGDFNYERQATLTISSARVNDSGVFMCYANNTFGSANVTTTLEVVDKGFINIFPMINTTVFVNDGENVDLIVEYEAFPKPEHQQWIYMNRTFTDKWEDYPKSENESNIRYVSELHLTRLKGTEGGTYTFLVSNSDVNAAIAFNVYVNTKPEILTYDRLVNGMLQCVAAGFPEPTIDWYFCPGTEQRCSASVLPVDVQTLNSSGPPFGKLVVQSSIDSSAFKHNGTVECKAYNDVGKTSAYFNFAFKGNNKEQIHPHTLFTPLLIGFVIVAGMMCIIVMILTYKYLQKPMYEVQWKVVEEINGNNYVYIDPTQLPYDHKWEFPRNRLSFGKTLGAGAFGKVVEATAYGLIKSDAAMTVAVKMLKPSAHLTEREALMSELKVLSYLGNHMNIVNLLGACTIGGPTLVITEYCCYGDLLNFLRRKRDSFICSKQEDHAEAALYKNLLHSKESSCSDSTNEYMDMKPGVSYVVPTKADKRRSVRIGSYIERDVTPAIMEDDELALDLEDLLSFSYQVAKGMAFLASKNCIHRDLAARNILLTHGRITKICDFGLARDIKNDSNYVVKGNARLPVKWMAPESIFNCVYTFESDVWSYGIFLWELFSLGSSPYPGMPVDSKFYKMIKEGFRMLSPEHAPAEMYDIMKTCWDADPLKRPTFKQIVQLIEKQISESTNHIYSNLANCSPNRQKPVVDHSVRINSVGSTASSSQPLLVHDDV
T9 sequence (P16234 24-1089): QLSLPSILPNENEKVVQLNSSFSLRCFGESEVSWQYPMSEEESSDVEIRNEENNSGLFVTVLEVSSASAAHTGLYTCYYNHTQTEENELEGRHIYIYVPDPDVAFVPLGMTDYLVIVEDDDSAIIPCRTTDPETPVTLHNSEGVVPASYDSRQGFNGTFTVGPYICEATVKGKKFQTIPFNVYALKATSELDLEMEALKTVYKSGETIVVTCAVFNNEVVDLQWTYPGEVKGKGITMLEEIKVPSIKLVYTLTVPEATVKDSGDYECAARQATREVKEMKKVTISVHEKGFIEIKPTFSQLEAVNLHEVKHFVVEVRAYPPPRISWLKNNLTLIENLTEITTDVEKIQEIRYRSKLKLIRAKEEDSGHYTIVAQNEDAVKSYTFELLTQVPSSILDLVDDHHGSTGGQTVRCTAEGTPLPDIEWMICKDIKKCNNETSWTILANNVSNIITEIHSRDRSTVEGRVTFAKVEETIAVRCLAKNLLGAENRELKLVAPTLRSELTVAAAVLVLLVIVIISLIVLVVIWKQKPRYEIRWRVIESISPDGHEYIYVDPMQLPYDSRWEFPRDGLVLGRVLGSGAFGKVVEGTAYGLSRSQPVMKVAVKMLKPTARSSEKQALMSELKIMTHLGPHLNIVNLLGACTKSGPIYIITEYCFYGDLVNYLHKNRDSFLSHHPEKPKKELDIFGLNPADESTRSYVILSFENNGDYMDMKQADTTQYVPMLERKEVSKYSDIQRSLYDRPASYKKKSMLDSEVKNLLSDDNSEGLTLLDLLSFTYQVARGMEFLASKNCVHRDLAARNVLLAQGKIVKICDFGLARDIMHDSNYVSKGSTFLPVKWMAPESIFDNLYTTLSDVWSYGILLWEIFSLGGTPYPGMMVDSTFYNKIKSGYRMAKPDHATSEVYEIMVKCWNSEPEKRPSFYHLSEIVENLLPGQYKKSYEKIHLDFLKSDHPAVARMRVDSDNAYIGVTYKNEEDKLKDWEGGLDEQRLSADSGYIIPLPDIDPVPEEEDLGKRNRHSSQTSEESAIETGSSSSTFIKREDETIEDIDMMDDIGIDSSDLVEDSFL
T6 sequence (P15056 whole entry V600E): as the sequence (P15056 whole entry) above, with V600E counted along it
T10 sequence (P09619 33-1106): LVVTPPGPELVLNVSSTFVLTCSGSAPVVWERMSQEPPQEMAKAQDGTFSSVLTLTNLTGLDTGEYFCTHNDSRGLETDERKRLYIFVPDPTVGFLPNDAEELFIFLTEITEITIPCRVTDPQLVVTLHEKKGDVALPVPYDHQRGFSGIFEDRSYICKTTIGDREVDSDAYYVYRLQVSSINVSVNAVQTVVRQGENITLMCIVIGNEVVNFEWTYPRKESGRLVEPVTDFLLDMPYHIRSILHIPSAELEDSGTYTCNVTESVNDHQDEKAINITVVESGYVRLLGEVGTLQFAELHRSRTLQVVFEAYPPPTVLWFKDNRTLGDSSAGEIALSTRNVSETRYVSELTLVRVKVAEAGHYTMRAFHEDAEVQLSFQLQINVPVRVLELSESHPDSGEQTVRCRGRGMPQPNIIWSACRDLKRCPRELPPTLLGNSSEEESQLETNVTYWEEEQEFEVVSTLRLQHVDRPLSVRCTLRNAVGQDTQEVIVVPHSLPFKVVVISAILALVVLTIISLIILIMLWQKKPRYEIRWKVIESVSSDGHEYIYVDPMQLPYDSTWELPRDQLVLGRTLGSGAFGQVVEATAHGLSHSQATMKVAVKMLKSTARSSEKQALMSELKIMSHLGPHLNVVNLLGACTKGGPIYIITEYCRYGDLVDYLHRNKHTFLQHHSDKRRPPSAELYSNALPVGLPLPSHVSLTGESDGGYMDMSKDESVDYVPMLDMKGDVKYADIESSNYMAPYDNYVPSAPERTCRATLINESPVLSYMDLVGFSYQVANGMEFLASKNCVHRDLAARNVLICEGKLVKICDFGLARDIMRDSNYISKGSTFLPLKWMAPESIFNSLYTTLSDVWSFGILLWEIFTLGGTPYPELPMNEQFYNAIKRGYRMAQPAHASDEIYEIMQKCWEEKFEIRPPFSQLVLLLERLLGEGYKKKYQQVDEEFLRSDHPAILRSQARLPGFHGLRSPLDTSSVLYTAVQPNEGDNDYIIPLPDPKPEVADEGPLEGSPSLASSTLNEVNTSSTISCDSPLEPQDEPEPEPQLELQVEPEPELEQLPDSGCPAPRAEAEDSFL

Consider `CCCOc1ccc2nc(NC(=O)OC)[nH]c2c1` [Oxibendazole, oxibendazole], for which the “survival index (SI)” value in data set [1] is given as “lowest SIs”.

In the case of `CCCSc1ccc2nc(NC(=O)OC)[nH]c2c1` [albendazole], on panel of 97 kinases, the kinase binding result is given as “no kinase binding was observed”, the “Interactions Mapped” value was 1 and the “S-Score(35)” value was 0. The “survival index (SI)” value in data set [1] was “closely followed”. For the same molecule, the ROS generation result in data set [2] is on record as “strong reactive oxygen species (ROS) generation”. The dose-limiting toxicity entry in data set [3] (dose-escalating phase-I trial, ref Pourgholami et al. [2010]) was “neutropenia”. In data set [3] (patients with advanced cancers, ref Morris et al. [2001]), the “toxicity in clinical study” value is on record as “neutropenia”.

On to `COC(=O)Nc1nc2ccc(Sc3ccccc3)cc2[nH]1` [fenbendazole], for which the “survival index (SI)” value in data set [1] is reported as “closely followed”.

As to `COC(=O)Nc1nc2ccc(C(=O)c3ccccc3)cc2[nH]1` [mebendazole], the dissociation constant Kd at ABL1 nonphosphorylated (average of two determinations) is 0.55 µM; at ABL1 phosphorylated (average of two determinations), 0.13 µM; in data set [4] (average of two determinations), 0.078 µM; in [5] (average of two determinations), 0.17 µM; on BRAF (average of two determinations), 0.19 µM; at BRAF(V600E) (average of two determinations) it was 0.25 µM. Also, the Kd at JNK3 (average of two determinations) was 0.42 µM; at KIT (average of two determinations), 0.46 µM; at PDGFRA (average of two determinations) it was 0.34 µM; at PDGFRB (average of two determinations) it was 0.56 µM. Moreover, the remaining binding at 10 µM at ABL1 nonphosphorylated (setting [11]) stood at 2.4%; on ABL1 phosphorylated (setting [11]), 0.95%; in data set [4] (setting [11]) it was 0.3%; in data set [5] (setting [11]) it was 4.8%; on BRAF (setting [11]), 13%; at BRAF(V600E) (setting [11]), 5.1%. Moreover, the remaining binding at 10 µM on JNK3 (setting [11]) worked out at 5.2%; at KIT (setting [11]), 2.9%; on PDGFRA (setting [11]), 15%; at PDGFRB (setting [11]) it was 2.3%. In addition, at panel of 97 kinases, the kinase binding result is “potent inhibitor of several kinases with high affinity”. The “Interactions Mapped” value in the data set on panel of 97 kinases worked out at 20. Also, the “S-Score(35)” value with panel of 97 kinases was determined as 0.19. The molecule also had an IC50 in [6] of less than 5 µM. The entries for the “frequency of sensitive cell lines (positive z scores)” value in the data set on NCI 60 cell line panel [7] (colon cancer cell lines of NCI 60), in the data set on NCI 60 cell line panel [7] (lung cancer subpanel of NCI 60) and in the data set with NCI 60 cell line panel [7] (renal cancer subpanel of NCI 60) were 80%, 25% and 28%, respectively. For the same molecule, the GI50 in the data set with NCI 60 cell line panel [8] was 0.46 µM. For the same molecule, the “computerized tomography evaluation, liver” value in data set [9] (after six weeks of therapy) is reported as “good partial remission”. The “computerized tomography evaluation, metastases in the lungs and lymph nodes” value in [9] (after six weeks of therapy) was “near complete remission”. In addition, the adverse effects result in data set [9] is “no subjective adverse effects at all”. In addition, the survival entry in the data set with glioma is listed as “significantly increase survival”.

On to `COC(=O)Nc1nc2ccc(C(=O)c3cccs3)cc2[nH]1` [nocodazole], for which the protein kinase inhibition result in [10] is “inhibit several protein kinases including Bcr–Abl”.

One may read the Kd as the concentration at which binding is half-saturated. The low end stands for higher affinity, the high end for lower affinity. One may read the IC50 as the concentration needed to halve the response being measured. The low end stands for inhibition by little substance, the high end for a need for much substance.
